The target in experiment [1] is T1, GPR3 (Homo sapiens, UniProt P46089).
T1 construct: expressed in transfected cells
Kind of experiment: Inhibition of OA-induced GPR3 activation, GloSensor cAMP assay in GPR3 stably expressing AD293 cell line. The experiment is classed as cell-based. The following applies: OA concentration fixed at 300 μM; read-out: IC50 of OA-induced receptor activation. As to the method: (§1) The GloSensor cAMP assay was performed according to the instructions of Promega. AD293 cells were split into 6-well plate (300,000 cells/mL) and then transfected with the pGloSensor™-22F cAMP plasmid and pcDNA3-GPR3 plasmid by Lipofectamine 2000, at a ratio of 2:1 (μL:μg). 24 h after transfection, cells were split into 96-well plate for another 24 h incubation. After removal of cell medium, 90 μL of 3% v/v (the GloSensor cAMP reagent vs serum-free medium) substrate was added into each well. After 2 h incubation at RT, background measurements were taken, and then 10 μL 10× stock compounds were added for the second measurements of ligand activation via EnVision 2105 (PerkinElmer). Relative cAMP level was calculated by the cAMP level after addition of ligand divided by the cAMP level before addition of ligand (basal level). Stock FAs (i.e., 10–50 mM) were solubilized in DMSO, then diluted in cell culture buffer to designated concentrations and sonicated to ensure that they were evenly distributed in the buffer before being added to cells.
AD293 cells were split into 6-well plate (300,000 cells/mL), and then transfected with the pGloSensor™-22F cAMP plasmid and the pcDNA6-GPR3-3× FLAG plasmid (WT receptor or the mutants, F120A^3.36, W260A^6.48, L283F^7.39, A201W^5.46, Y280A^7.36, H96A^2.60 and H96A^2.60/Y280A^7.36) by Lipofectamine 2000 at a ratio of 2:1 (μL:μg). […]
In general terms: Changes in cAMP serve as a functional read-out for many G protein-coupled receptors.

For experiment [2], the target named is T1, GPR3. The experiment can be described thus: GloSensor cAMP assay in GPR3 stably expressing AD293 cell line (agonist mode). The following applies: for cAMP induction activity (in words) / EC50: GPR3 stably expressing AD293; for maximum response: Table S2, relative cAMP level, at 500 μM (FA 12:0, 16:1, 18:0, OEA 18:1, OLM 18:1), 450 μM (FA 18:1), 400 μM (FA 16:0), 300 μM (FA 22:0, 18:2), 100 μM (FAME 18:0, FAEE 18:0, lysophospholipids), 3 μM (LTB4); for EC50: cAMP induction. The experiment is classed as cell-based. As to the method:
as §1
AD293 cells were split into 6-well plate (300,000 cells/mL), and then transfected with the pGloSensor™-22F cAMP plasmid and the pcDNA6-GPR3-3× FLAG plasmid (WT receptor or the mutants, F120A^3.36, W260A^6.48, L283F^7.39, A201W^5.46, Y280A^7.36, H96A^2.60 and H96A^2.60/Y280A^7.36) by Lipofectamine 2000 at a ratio of 2:1 (μL:μg). Geneticin (2 mg/mL) and blasticidin (20 μg/mL) were used to select colonies that stably express both GPR3 and GloSensor 22F. The cell culture medium containing antibiotics was changed every 2 days till well-separated colonies appeared. Then individual single colony was picked by a small piece of sterilized filter paper soaked with trypsin and separately cultured in a single well of 24-well plate. At least 24 candidate colonies were selected for each mutant and WT. After several days of culture, each colony was triplicated. One of the triplicates was used for western blot analysis, another for the GloSensor cAMP assay, and the remaining one was stored for staining. The colonies with top scores in both expression (western blot) and functional assay were selected as the representative colonies for each mutant or WT for further analysis.

A further experiment addresses T2, GPR6 (Homo sapiens, UniProt P46095).
T2 construct: FLAG; expressed in transfected cells
Kind of experiment: GloSensor cAMP assay in GPR6 stably expressing AD293 cell line. The experiment is classed as cell-based. The following applies: lipid concentration 300 μM.

In the next experiment the test system is GPR120. Further details: method as in PMID 36862765. As to conditions: cited from earlier work.
The subject of experiment [3] is Gs/cAMP/PKA signaling in iBAT. The experiment can be described thus: Ex vivo iBAT of WT mice, p-PKA substrate immunoblot. It counts as cell-based, mouse. The following applies: WT iBAT at 4 °C; lipid 1 mM (OA also 5 mM), up to 4 h. As to the method: iBAT was isolated from C57BL/6N mice at 4-6 weeks old and cut into 10 mg pieces. […] Another group of iBAT pieces were incubated in DMEM medium at 4 °C, and treated with different doses of OA (0 mM, 1 mM, 5 mM) for 4 h. OA (Sigma, O1008) was dissolved in serum-free DMEM (Gibco, high glucose, 12100046) by using an ultrasonic cleaner at 40 °C for 10 min.
(In general: In western blotting, separated proteins are transferred to a membrane and probed.)

Entries after “also recorded” stand apart in the source; their conditions may differ.

T1 sequence (P46089 whole entry): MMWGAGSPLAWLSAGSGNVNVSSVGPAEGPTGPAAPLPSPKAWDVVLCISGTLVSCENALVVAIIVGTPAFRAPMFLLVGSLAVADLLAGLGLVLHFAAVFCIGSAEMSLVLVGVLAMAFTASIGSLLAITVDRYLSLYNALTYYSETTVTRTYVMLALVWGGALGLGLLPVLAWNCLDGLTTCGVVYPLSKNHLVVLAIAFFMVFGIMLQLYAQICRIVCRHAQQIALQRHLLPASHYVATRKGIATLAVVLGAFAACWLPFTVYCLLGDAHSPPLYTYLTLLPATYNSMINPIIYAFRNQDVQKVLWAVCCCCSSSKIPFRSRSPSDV
T2 sequence (P46095 whole entry, species assumed): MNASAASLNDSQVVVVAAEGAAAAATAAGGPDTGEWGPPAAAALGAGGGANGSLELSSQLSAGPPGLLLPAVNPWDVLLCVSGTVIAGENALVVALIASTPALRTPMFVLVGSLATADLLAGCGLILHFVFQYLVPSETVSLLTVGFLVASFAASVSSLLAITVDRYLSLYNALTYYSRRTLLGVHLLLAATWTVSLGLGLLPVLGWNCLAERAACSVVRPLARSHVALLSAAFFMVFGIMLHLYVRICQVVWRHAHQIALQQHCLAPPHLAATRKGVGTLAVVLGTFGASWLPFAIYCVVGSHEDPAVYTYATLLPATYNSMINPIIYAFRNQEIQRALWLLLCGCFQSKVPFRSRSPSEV

Consider `CC(C)Oc1cc(Cl)ccc1CNc1cc(-c2ccccc2)nc2ncnn12` [AF64394], for which the IC50 at GPR3 [1] was determined as 0.171 µM.

Consider `CCCCCCCCCCCCCCCCCCCCCC(=O)O` [BEH, behenic acid], for which, at GPR3 [2], the “cAMP induction activity (in words)” value is reported as “no activity at all; also recorded: failed to activate the receptor” and the maximum response is given as 1.0.

Regarding `c1ccc2c(c1)[I+]c1ccccc1-2` [DPI, diphenyleneiodonium chloride], the “Emax compared to Emax of OA” value on GPR3 [2] (cAMP assay) was “higher Emax”.

`CCCCCCCCCCCCCCCCCC(=O)OCC` [ETS, ethyl stearate]: on GPR3 [2], the “cAMP induction activity (in words)” value is listed as “completely abolished receptor activation; also recorded: failed to activate the receptor” and the maximum response amounted to 0.6.

In the case of `CCCCCCCCCCCC(=O)O` [LAU, lauric acid], on GPR6, the “GPR6 activation (in words)” value is listed as “strongly activated GPR6”. Also, at GPR3 [2], the “cAMP induction activity (in words)” value is “fully activate GPR3”, the maximum response is given as 204.5 and the EC50 stood at 320 µM. In addition, the “Emax compared to Emax of OA” value on GPR3 [2] (cAMP assay) is “higher Emax than OA”.

Regarding `CCCCC/C=C\C/C=C\CCCCCCCC(=O)O` [LIN, Linoleic acid], in the experiment with GPR120, the 50% effective concentration (EC50) was 57.4 µM. For the same compound, in experiment [3], the “Gs/cAMP/PKA signaling (phosphorylation of PKA substrates)” value is “neither STE nor LIN induced Gs/cAMP/PKA signaling”. Moreover, at GPR3 [2], the “cAMP induction activity (in words)” value is listed as “failed to activate the receptor; also recorded: almost no activity” and the maximum response was 2.9.

For the compound `CCCCC/C=C\C[C@@H](O)/C=C/C=C/C=C\[C@@H](O)CCCC(=O)O` [LTB4, leukotriene B4], at GPR3 [2], the “cAMP induction activity (in words)” value is listed as “failed to activate GPR3” and the maximum response stood at 0.8.

With `CCCCCCCCCCCCCCCCCC(=O)OC` [MES, methyl stearate], at GPR3 [2], the “cAMP induction activity (in words)” value is “completely abolished receptor activation; also recorded: failed to activate the receptor” and the maximum response amounted to 0.9.

Regarding `CCCCCCCC/C=C\CCCCCCCC(=O)NCCO` [OEA, oleoylethanolamide], on GPR3 [2], the maximum response came out at 60.9 and the concentration for a half-maximal effect (EC50) was determined as 336 µM. For the same compound, at GPR3 [2] (cAMP assay), the “Emax compared to Emax of OA” value was “half of the Emax of OA”.

In the case of `CCCCCCCC/C=C\CCCCCCCC(N)=O` [OLM, Oleamide], at GPR3 [2], the maximum response stood at 75.1 and the EC50 amounted to 334 µM. Also, at GPR3 [2] (cAMP assay), the “Emax compared to Emax of OA” value is given as “half of the Emax of OA”.

At GPR3 [2], `CCCCCCCCCCCCCCCC(=O)O` [PAL, palmitic acid] displayed a maximum response of 118.7 and an EC50 of 311 µM. Further, at GPR3 [2] (cAMP assay), the “Emax compared to Emax of OA” value is listed as “slightly lower Emax than OA”.

As to `CCCCCC/C=C\CCCCCCCC(=O)O` [PML, palmitoleic acid], the “GPR6 activation (in words)” value at GPR6 is reported as “strongly activated GPR6”. Further, on GPR3 [2], the maximum response worked out at 61.8 and the EC50 amounted to 328 µM. At GPR3 [2] (cAMP assay), the “Emax / receptor activation compared to PAL” value was “half of the Emax of PAL; also recorded: substantially decreased receptor activation compared to PAL”.

In the case of `CCCCCCCCCCCCC/C=C/[C@@H](O)[C@@H](N)COP(=O)(O)O` [S1P, sphingosine-1-phosphate], on GPR3 [2], the “cAMP induction activity (in words)” value was “none of the lysophospholipids that we tested exhibited cAMP induction activity” and the maximum response is given as 0.6.

On to `CCCCCCCCCCCCCCCCCC(=O)O` [STE, stearic acid], for which the “Gs/cAMP/PKA signaling (phosphorylation of PKA substrates)” value in experiment [3] is reported as “neither STE nor LIN induced Gs/cAMP/PKA signaling”. For the same compound, at GPR3 [2], the “cAMP induction activity (in words)” value was “weak activity”, the maximum response came out at 44.8 and the EC50 was found to be 361 µM. Further, the “Emax compared to Emax of OA” value on GPR3 [2] (cAMP assay) is recorded as “about 1/3”.

On to LPA 16:0, for which, at GPR3 [2], the “cAMP induction activity (in words)” value is reported as “none of the lysophospholipids that we tested exhibited cAMP induction activity” and the maximum response worked out at 0.5.

On to LPA 18:1, for which, on GPR3 [2], the “cAMP induction activity (in words)” value is “none of the lysophospholipids that we tested exhibited cAMP induction activity” and the maximum response was found to be 0.5.

For the compound LPC 14:0, on GPR3 [2], the “cAMP induction activity (in words)” value is “none of the lysophospholipids that we tested exhibited cAMP induction activity” and the maximum response came to 1.8.

One may read the IC50 as the midpoint of a concentration-inhibition curve. In general, EC50 refers to the concentration that produces a half-maximal response.

The values above are taken from PMC10907358, “Identification of oleic acid as an endogenous ligand of GPR3” (Cell Research, 2024).
